# Like-named read-outs stand apart in the source and are kept apart here.
# Experiments:
# [1] = system: Escherichia coli J53 (RP4); test: Growth tests: adaptation (resistance development) to aminoglycoside antibiotic with or without BVDU; format: cell-based
# From the text: Escherichia coli J53 was used as Gram-negative model organism in order to test the effectiveness of BVDU. This organism carries the naturally occurring plasmid RP4, on which resistances to Ampicillin, Tetracycline and Kanamycin are encoded.
# The results are illustrated in FIGS. 1 and 2.
# [2] = system: E. coli J53 (RP4) strains; test: Determination of minimal inhibitory concentrations (MIC) of Kanamycin or Amikacin on starter, adapted and BVDU-pretreated strains; format: cell-based, Escherichia coli; conditions: for MIC: Escherichia coli
# From the text: In order to determine the minimal inhibitory concentrations (MIC), precultures were used initially for which antibiotic-free culture medium had been inoculated directly from frozen glycerine cultures. […] However even higher antibiotic concentrations still led to the growth of the inoculum. However, the growth inhibition prevented a larger cell density in the bacteria culture being reached.
# In order to test the stability of the specific resistance features of the E. coli strains, the MIC determination was repeated. The already tested precultures were again absorbed for this purpose in antibiotic-free culture medium and tested for their Kanamycin resistance. The resistance spectra of the starter strain and of the strain adapted to 64 μg/ml remained unchanged. […] The results are illustrated in FIG. 4.
# The results can be deduced from FIG. 6.
# (§1) In order to determine the minimal inhibitory concentrations (MIC) of Kanamycin or Amikacin relative to aminoglycoside/BVDU-pretreated E coli J53 (RP4) strains, standard precultures were used which contained no additives in the culture medium (recovery phase). In addition, it was tested in comparative experiments to what extent the addition of BVDU to the antibiotic-free precultures changes the resistant spectrum of the strains.
# [3] = system: aminoglycoside/BVDU-pretreated E coli J53 (RP4) strains; test: BVDU conditioned growth inhibition after aminoglycoside/BVDU pretreatment; format: cell-based, Escherichia coli
# Method: as §1
# In comparison therewith, the growth without antibiotic in the additive-free preculture corresponded to that of the untreated E. coli strain. The results are illustrated in FIGS. 7 and 8.
# Leidshmania donovanii = test: Prevention of methotrexate resistance development in Leishmania by gradual increase in MTX concentration; format: cell-based
# Method: Prevention of resistance development in Zooflagellates (Leishmania) by the simultaneous administration of the anti-recombinogenic 5-substituted nucleoside (E)-5-(2-bromovinyl)2′-deoxyuridines (BVDU) with methotrexate.
# Methotrexate (MTX) resistant cells of Leidshmania donovanii were produced by gradual increase in the MTX concentrations of 5 to 10, of 10 to 50 and of 50 to 100 μm MTX. 5×10^6 cells/ml respectively were seeded in the growth medium. The cells were diluted again to 5×10^6 cells/ml for each new batch. The cells were then constantly subjected to the next higher MTX concentration when the cell division rate of the MTX-subjected cells had stabilised to the control level. […] The result of this test can be seen in a simplified version in FIGS. 9 and 10.
# [4] = 1 μg/ml BVDU added simultaneously with MTX
compound,measurement,setting,value
NCC[C@H](O)C(=O)N[C@@H]1C[C@H](N)[C@@H](O[C@H]2O[C@H](CN)[C@@H](O)[C@H](O)[C@H]2O)[C@H](O)[C@H]1O[C@H]1O[C@H](CO)[C@@H](O)[C@H](N)[C@H]1O [Amikacin],"adaptation, i.e. resistance development, to the antibiotic","[1]; Amikacin 0.25 μg/ml alone, E coli J53 (RP4)","slow adaptation, i.e. resistance development"
same,MIC,"[2]; strain which had become resistant to 0.25 μg/ml Amikacin, read-out: MIC of Amikacin",2 µg/mL
same,Amikacin concentration from which growth inhibition was shown,[2]; strain grown in the presence of 2 μg/ml BVDU (no resistance to 0.25 μg/ml Amikacin),0.125 µg/mL
same,increase of Amikacin MIC relative to the starter strain,[2]; strain which had become resistant to 0.25 μg/ml Amikacin,eight times increased
"O=c1[nH]c(=O)n([C@H]2C[C@H](O)[C@@H](CO)O2)cc1/C=C/Br [BVDU, (E)-5-(2-bromovinyl)-2-deoxyuridines]",effect on resistance development/adaptation to Kanamycin,"[1]; BVDU 1 μg/ml in presence of Kanamycin 64 μg/ml, E. coli J53 (RP4)",inhibition of this resistance development/adaptation
same,effect on adaptation to Amikacin,"[1]; BVDU 2 μg/ml in presence of Amikacin 0.25 μg/ml, E coli J53 (RP4)",inhibition of this adaptation
same,growth of aminoglycoside/BVDU-pretreated E. coli strains in the absence of the antibiotic,[3]; BVDU 1 or 2 μg/ml in the preculture or/and 0.04–0.05 μg/ml in the MIC batches,sustained restriction of the growth
same,effect of BVDU without pretreatment (antibiotic+BVDU),[3]; no pretreatment,no effect
same,toxicity of BVDU without pretreatment,[3]; no pretreatment,not toxic
same,cell division rate relative to control level,Leidshmania donovanii; [4],never reached the control level
same,resistance development to MTX treatment,Leidshmania donovanii; [4],no resistance to the treatment
NC[C@H]1O[C@H](O[C@H]2[C@H](O)[C@@H](O[C@H]3O[C@H](CO)[C@@H](O)[C@H](N)[C@H]3O)[C@H](N)C[C@@H]2N)[C@H](O)[C@@H](O)[C@@H]1O [Kanamycin],MIC,"[2]; strain pretreated with 64 μg/ml Kanamycin + 1 μg/ml BVDU, repeated MIC determination, read-out: Kanamycin concentration from which growth of the inoculum was completely prevented (MIC)",32 µg/mL
same,MIC,"[2]; strain which had become resistant to 64 μg/ml Kanamycin, read-out: MIC of Kanamycin",128 µg/mL
same,Kanamycin concentration from which growth inhibition was shown,"[2]; strain grown in the presence of 1 μg/ml BVDU (no resistance to 64 μg/ml Kanamycin), first MIC determination",16 µg/mL
"CN(Cc1cnc2nc(N)nc(N)c2n1)c1ccc(C(=O)N[C@@H](CCC(=O)O)C(=O)O)cc1 [MTX, Methotrexate]",passages until cell division rate stabilised to the control level,"Leidshmania donovanii; MTX alone, steps 5 to 10, 10 to 50, 50 to 100 μm MTX",approximately three to four passages

# Reference: patent publication US7122528B2, “Use of 5-substituted nucleosides and/or prodrugs thereof in the resistance-free treatment of infectious diseases” (RESPROTECT GmbH, priority 2001, dated 2006)
